In patent US20100204265A1 (priority 2009, published 2010):

tested on: ET (Huh-lucubineo-ET) cell line harboring I389luc-ubi-neo/NS3-3′/ET HCV replicon; experiment: Replicon assay (HCV replicon, luciferase readout); format: cell-based; conditions: Hepatitis C virus
Method: A cell line, ET (Huh-lucubineo-ET) is used for screening of compounds for inhibiting HCV RNA dependent RNA polymerase. The ET cell line is stably transfected with RNA transcripts harboring a I389luc-ubi-neo/NS3-3′/ET; replicon with firefly luciferase-ubiquitin-neomycin phosphotransferase fusion protein and EMCV-IRES driven NS3-5B polyprotein containing the cell culture adaptive mutations (E1202G; T1280I; K1846T) (Krieger at al, 2001 and unpublished). The ET cells are grown in DMEM (Dulbeco's Modified Eagle's Medium), supplemented with 10% fetal calf serum, 2 mM Glutamine, Penicillin (100 IU/mL)/Streptomycin (100 μg/mL), 1× nonessential amino acids, and 250 μg/mL G418 (“Geneticin”). They are all available through Life Technologies (Bethesda, Md.). The cells are plated at 0.5−1.0×10^4 cells/well in the 96 well plates and incubated for 24 hrs before adding test compound. The compounds are added to the cells to achieve a final concentration of 0.1 nM to […] and a final DMSO (dimethylsulfoxide) concentration of 0.5%. Luciferase activity is measured 48-72 hours later by adding a lysis buffer and the substrate (Catalog number Glo-lysis buffer E2661 and Bright-Glo luciferase system E2620 Promega, Madison, Wis.). Cells should not be too confluent during the assay. Percent inhibition of replication data is plotted relative to no compound control. Under the same condition, cytotoxicity of the compounds are determined using cell proliferation reagent, WST-1 (Roche, Germany). The compounds showing antiviral activities, but no significant cytotoxicities are chosen to determine EC50 and TC50. For these determinations, a 10 point, 2-fold serial dilution for each compound was used, which spans a concentration range of 1000 fold. EC50 and similarly TC50 values were calculated by fitting % inhibition at each concentration to the following equation:
% inhibition=100%/[(EC50/[I])^b+1]
where b is Hill's coefficient.

SMILES | EC50
O=C(Cc1cn2cc(-c3ccoc3)cc(C(F)(F)F)c2n1)N1CCN(c2nccs2)CC1 [Compound 109, 2-(6-Furan-3-yl-8-trifluoromethyl-imidazo[1,2-a]pyridin-2-yl)-1-(4-thiazol-2-yl-piperazin-1-yl)-ethanone] | > 50 µM
O=C(Cc1cn2cc(-c3ccoc3)cc(C(F)(F)F)c2n1)N1CCCCC1c1ccccc1 (stereo not drawn) [Compound 110, 2-(6-Furan-3-yl-8-trifluoromethyl-imidazo[1,2-a]pyridin-2-yl)-1-(2-phenyl-piperidin-1-yl)-ethanone] | 49 µM
O=C(c1nc2c(C(F)(F)F)cc(-c3ccoc3)cn2c1Cl)N1CC=C(c2ncc[nH]2)CC1 [Compound 111, (3-Chloro-6-furan-3-yl-8-trifluoromethyl-imidazo[1,2-a]pyridin-2-yl)-[4-(1H-imidazol-2-yl)-3,6-dihydro-2H-pyridin-1-yl]-methanone] | > 50 µM
O=C(c1nc2c(C(F)(F)F)cc(-c3cn[nH]c3)cn2c1Cl)N1CC=C(c2cn[nH]c2)CC1 [Compound 112, [3-Chloro-6-(1H-pyrazol-4-yl)-8-trifluoromethyl-imidazo[1,2-a]pyridin-2-yl]-[4-(1H-pyrazol-4-yl)-3,6-dihydro-2H-pyridin-1-yl]-methanone] | 0.368 µM
O=C(Cc1cn2cc(-c3ccoc3)cc(C(F)(F)F)c2n1)N1Cc2ccccc2C1 [Compound 113, 1-(1,3-Dihydro-isoindol-2-yl)-2-(6-furan-3-yl-8-trifluoromethyl-imidazo[1,2-a]pyridin-2-yl)-ethanone] | 8.63 µM
O=C(c1nc2c(C(F)(F)F)cc(-c3ccoc3)cn2c1Cl)N1CCC(N2CCCCC2=O)CC1 [Compound 114, 1′-(3-Chloro-6-furan-3-yl-8-trifluoromethyl-imidazo[1,2-a]pyridine-2-carbonyl)-[1,4′]bipiperidinyl-2-one] | 1.33 µM
CCOc1cccnc1C1=CCN(C(=O)c2nc3c(C(F)(F)F)cc(-c4ccoc4)cn3c2Cl)CC1 [Compound 115, (3-Chloro-6-furan-3-yl-8-trifluoromethyl-imidazo[1,2-a]pyridin-2-yl)-(3-ethoxy-3′,6′-dihydro-2′H-[2,4′]bipyridinyl-1′-yl)-methanone] | 22.5 µM
O=C(c1cc2c(C(F)(F)F)cc(-c3cccs3)nc2[nH]1)N1CC=C(c2ncccc2F)CC1 [Compound 116, (3-Fluoro-3′,6′-dihydro-2′H-[2,4′]bipyridinyl-1′-yl)-(6-thiophen-2-yl-4-trifluoromethyl-1H-pyrrolo[2,3-b]pyridin-2-yl)-methanone] | 24.4 µM
O=C(c1cc2nc(-c3cccs3)cc(C(F)(F)F)c2[nH]1)N1CC=C(c2ncccc2F)CC1 [Compound 117, (3-Fluoro-3′,6′-dihydro-2′H-[2,4′]bipyridinyl-1′-yl)-(5-thiophen-2-yl-7-trifluoromethyl-1H-pyrrolo[3,2-b]pyridin-2-yl)-methanone] | 23.9 µM
O=C(c1nc2c(C(F)(F)F)cc(-c3nccs3)cn2c1Cl)N1CC=C(c2ncccc2F)CC1 [Compound 118, (3 -Chloro-6-thiazol-2-yl-8-trifluoromethyl-imidazo[1,2-a]pyridin-2-yl)-(3-fluoro-3′,6′-dihydro-2′H-[2,4′]bipyridinyl-1′-yl)-methanone] | 0.655 µM
O=C(c1nc2c(C(F)(F)F)cc(-c3cncs3)cn2c1Cl)N1CC=C(c2ncccc2F)CC1 [Compound 119, (3-Chloro-6-thiazol-5-yl-8-trifluoromethyl-imidazo[1,2-a]pyridin-2-yl)-(3-fluoro-3′,6′-dihydro-2′H-[2,4′]bipyridinyl-1′-yl)-methanone] | 0.354 µM
O=C(c1nc2c(C(F)(F)F)cc(-c3cscn3)cn2c1Cl)N1CC=C(c2ncccc2F)CC1 [Compound 120, (3-Chloro-6-thiazol-4-yl-8-trifluoromethyl-imidazo[1,2-a]pyridin-2-yl)-(3-fluoro-3′,6′-dihydro-2′H-[2,4′]bipyridinyl-1′-yl)-methanone] | 3.04 µM
O=C(c1nc2c(C(F)(F)F)cc(C3=CCNC3)cn2c1Cl)N1CC=C(c2ncccc2F)CC1 [Compound 121, [3-Chloro-6-(2,5-dihydro-1H-pyrrol-3-yl)-8-trifluoromethyl-imidazo[1,2-a]pyridin-2-yl]-(3-fluoro-3′,6′-dihydro-2′H-[2,4′]bipyridinyl-1′-yl)-methanone] | 2.54 µM
O=C(c1nc2c(C(F)(F)F)cc(-c3c[nH]cn3)cn2c1Cl)N1CC=C(c2ncccc2F)CC1 [Compound 122, [3-Chloro-6-(1H-imidazol-4-yl)-8-trifluoromethyl-imidazo[1,2-a]pyridin-2-yl]-(3-fluoro-3′,6′-dihydro-2′H-[2,4′]bipyridinyl-1′-yl)-methanone] | 5.89 µM
O=C(c1nc2c(C(F)(F)F)cc(-c3cccs3)cn2c1Cl)N1CC=C(c2ncccc2F)CC1 [Compound 123, (3-Chloro-6-thiophen-2-yl-8-trifluoromethyl-imidazo[1,2-a]pyridin-2-yl)-(3-fluoro-3′,6′-dihydro-2′H-[2,4′]bipyridinyl-1′-yl)-methanone] | 0.147 µM
O=C(c1nc2c(C(F)(F)F)cc(-c3ccccc3)cn2c1Cl)N1CC=C(c2ncccc2F)CC1 [Compound 124, (3-Chloro-6-phenyl-8-trifluoromethyl-imidazo[1,2-a]pyridin-2-yl)-(3-fluoro-3′,6′-dihydro-2′H-[2,4′]bipyridinyl-1′-yl)-methanone] | 2.48 µM
O=C(c1nc2c(C(F)(F)F)cc(Br)cn2c1Cl)N1CC=C(c2ncccc2F)CC1 [Compound 125, (6-Bromo-3-chloro-8-trifluoromethyl-imidazo[1,2-a]pyridin-2-yl)-(3-fluoro-3′,6′-dihydro-2′H-[2,4′]bipyridinyl-1′-yl)-methanone] | 0.0293 µM
C=Cc1cc(C(F)(F)F)c2nc(C(=O)N3CC=C(c4ncccc4F)CC3)c(Cl)n2c1 [Compound 126, (3-Chloro-8-trifluoromethyl-6-vinyl-imidazo[1,2-a]pyridin-2-yl)-(3-fluoro-3′,6′-dihydro-2′H-[2,4′]bipyridinyl-1′-yl)-methanone] | 0.0275 µM
O=C(c1nc2c(C(F)(F)F)cc(/C=C/C3CC3)cn2c1Cl)N1CC=C(c2ncccc2F)CC1 [Compound 127, [3-Chloro-6-(2-cyclopropyl-vinyl)-8-trifluoromethyl-imidazo[1,2-a]pyridin-2-yl]-(3-fluoro-3′,6′-dihydro-2′H-[2,4′]bipyridinyl-1′-yl)-methanone] | 0.428 µM
O=C(Cc1cccc(F)c1)NCc1cn2cc(-c3ccoc3)cc(C(F)(F)F)c2n1 [Compound 128, 2-(3-Fluoro-phenyl)-N-(6-furan-3-yl-8-trifluoromethyl-imidazo[1,2-a]pyridin-2-ylmethyl)-acetamide] | 4.83 µM
O=C(Cc1ccccc1F)NCc1cn2cc(-c3ccoc3)cc(C(F)(F)F)c2n1 [Compound 129, 2-(2-Fluoro-phenyl)-N-(6-furan-3-yl-8-trifluoromethyl-imidazo[1,2-a]pyridin-2-ylmethyl)-acetamide] | 20.3 µM
O=C(NCc1cn2cc(-c3ccoc3)cc(C(F)(F)F)c2n1)c1ccccc1 [Compound 130, N-(6-Furan-3-yl-8-trifluoromethyl-imidazo[1,2-a]pyridin-2-ylmethyl)-benzamide] | 49.8 µM
O=C(c1nc2c(C(F)(F)F)cc(-c3cn[nH]c3)cn2c1Cl)N1CC=C(c2ccoc2)C1 [Compound 131, [3-Chloro-6-(1H-pyrazol-4-yl)-8-trifluoromethyl-imidazo[1,2-a]pyridin-2-yl]-(3-furan-3-yl-2,5-dihydro-pyrrol-1-yl)-methanone] | 0.268 µM
O=C(c1nc2c(C(F)(F)F)cc(-c3cn[nH]c3)cn2c1Cl)N1CC=C(c2ccsc2)C1 [Compound 132, [3-Chloro-6-(1H-pyrazol-4-yl)-8-trifluoromethyl-imidazo[1,2-a]pyridin-2-yl]-(3-thiophen-3-yl-2,5-dihydro-pyrrol-1-yl)-methanone] | 0.107 µM
O=C(c1nc2c(C(F)(F)F)cc(-c3cn[nH]c3)cn2c1Cl)N1CC=C(c2cnoc2)C1 [Compound 133, [3-Chloro-6-(1H-pyrazol-4-yl)-8-trifluoromethyl-imidazo[1,2-a]pyridin-2-yl]-(3-isoxazol-4-yl-2,5-dihydro-pyrrol-1-yl)-methanone] | 3.47 µM
O=C(c1nc2c(C(F)(F)F)cc(-c3cn[nH]c3)cn2c1Cl)N1CC=C(c2cccnc2)C1 [Compound 134, [3-Chloro-6-(1H-pyrazol-4-yl)-8-trifluoromethyl-imidazo[1,2-a]pyridin-2-yl]-(3-pyridin-3-yl-2,5-dihydro-pyrrol-1-yl)-methanone] | 0.188 µM
O=C(c1nc2c(C(F)(F)F)cc(-c3cn[nH]c3)cn2c1Cl)N1CC=C(c2cn[nH]c2)C1 [Compound 135, [3-Chloro-6-(1H-pyrazol-4-yl)-8-trifluoromethyl-imidazo[1,2-a]pyridin-2-yl]-[3-(1H-pyrazol-4-yl)-2,5-dihydro-pyrrol-1-yl]-methanone] | 0.596 µM
